Experiments:
human IRE-1α = human IRE-1α (Homo sapiens (Human), UniProt O75460); assay: IRE-1α assay: cleavage of mini-XBP-1 mRNA stem-loop substrate by GST-IRE-1α in vitro; assay type: biochemical; settings: values in text
Protocol: A fusion protein comprising glutathione S transferase (GST) and human IRE-1α (GST-IRE-1α) was obtained from a 500 ml baculovirus-infected insect cell culture and used to measure IRE-1α activity in vitro.
Five μl of a reaction mixture comprising 1× reaction buffer (5× reaction buffer is 100 mM Hepes pH 7.5, 250 mM KOAc, 2.5 mM MgCl2), 3 mM DTT, and 0.4% polyethylene glycol water were added to each well of 384 well plates. Twenty-five nanoliters of a 1 mM test compound solution were added to test wells. […] Negative control wells contained only reaction mixture and test compound.
The plates were again spun at 1200 rpm for 30 seconds.
The plates were covered with lids and incubated for one hour at 30° C. The plates were then transferred to an ACQUEST™ microplate reader. Data was analyzed using data analysis software, and the percent activity of IRE-1α was calculated.

RNase A = RNase A (Bos taurus (Bovine), UniProt P61823); assay: RNase A assay with mini-XBP-1 mRNA stem-loop substrate; assay type: biochemical; settings: 2.5 μM test compound
Protocol: RNase A was assayed as described for RNase T1. Final concentrations for the assay were: 63 nM substrate, 0.4 pg RNase A (Qiagen; 100 mg/ml or 7000 U/ml), and 2.5 μM test compound.

RNase T1 = RNase T1 (Aspergillus oryzae (strain ATCC 42149 / RIB 40) (Yellow koji mold), UniProt P00651); assay: T1 RNase assay with mini-XBP-1 mRNA stem-loop substrate; assay type: biochemical; settings: 2.5 μM test compound
Protocol: T1 RNase was assayed as follows. Five μl of a reaction mixture comprising 1× reaction buffer (5× reaction buffer is 100 mM Hepes pH 7.5, 250 mM KOAc, 2.5 mM MgCl2), 3 mM DTT, and 0.4% polyethylene glycol water were added to each well of 384 well plates. Twenty-five nanoliters of a 1 mM test compound solution were added to test wells. Three μl of a 1/48,000 dilution of an approximately 200,000 U/ml RNase T1 (Worthington) preparation were added to each test well and to positive control wells (final concentration 49.5 pg/well). Negative control wells contained only reaction mixture and test compound.
After spinning the plates at 1200 rpm for 30 seconds, 3 μl of the mini-XBP-1 mRNA stem-loop substrate described in Example 1 were added to each well of a control plate. The plates were again spun at 1200 rpm for 30 seconds. Final concentrations for the assay were: 63 nM substrate, 49.5 pg RNase T1, and 2.5 μM test compound.
The plates were covered with lids and incubated for one hour at 30° C. The plates were then transferred to an ACQUEST™ microplate reader. Data was analyzed using data analysis software. The percent activity of RNase T1 was calculated.

[1] = test system: RPMI-8226 multiple myeloma cells; assay: Proliferation of multiple myeloma cells (CellTiter-Glo); assay type: cell-based, human; settings: 24 hours, 100 μM to 0 μM
Protocol: FIG. 5. Graph showing inhibition of proliferation of multiple myeloma cells by IRE-1α inhibitor 11-28 (Example 11). RPMI-8226 multiple myeloma cells were seeded at 20,000 cells per well in RPMI culture medium containing 1% FBS and the required antibiotics. The plate was incubated overnight at 37° C., 95% air, 5% CO2. The following day, compound 11-28 or medium alone was added to wells, resulting in a final volume of 100 μl per well. The compound concentration ranged from 100 μM to 0 μM, with compounds diluted by a factor of 4. After addition of compound, the plate was incubated at 37° C., 95% air, 5% CO2 for 24 hours. Cell proliferation was measured using the CellTiter-Glo assay (Promega), following the manufacturer's instructions.
Proliferation assays using myeloma cell lines (U266, RPMI8226 and MM.1s) are used to determine ED50. Compounds are used as single agents and in combination with other chemotherapeutic drugs.

primary murine B cells = assay: IgM secretion after LPS stimulation of primary B cells (ELISA); assay type: cell-based, mouse; settings: added at beginning of stimulation and again at 24 hours, 20 μg/ml LPS, 48 hr
Protocol: FIG. 9. Inhibition of IgM secretion after LPS stimulation of primary murine B cells with selected IRE-1α inhibitors. […] However, compounds had little effect when at added after 40 hours of stimulation; only slight inhibition at the highest dose. Methods were performed as previously described by Iwakoshi et al., Nature 4, 321-29, 2003 for B cell stimulation, plasma cell differentiation and IgM secretion. Primary B cells were Isolated from BALB/c splenocytes using mouse CD43 Microbeads (Miltenyi cat#130-049-801) with 1×10^6 cells per treatment. Purified B cells were stimulated in B Cell Media at a final density of 1×10^6/ml/well in 24-well plates with 20 μg/ml LPS (Sigma cat#L4391). IRE-1α inhibitor compound 17-1 was added at various concentrations (50 μM, 10 μM, 2 μM, 0.4 μM and 0.08 μM) at specified time points (t=0, t=24 hr, t=40 hr, etc.) Cells were incubated for 48 hr at 37° C. At end of the incubation, cells were spun in a plate at 1500 rpm/3 min. Supernatants were collected for quantitation for IgM secretion using a mouse IgM ELISA Kit (Bethyl Labs cat#E90-101). B Cell medium included RPMI+10% FBS supplemented with NEAA, HEPES, NaPyr, PSQ, and β-mercaptoethanol.

[2] = test system: phosphorylated IRE-1α and XBP1-splicing in RPMI8226 cells; assay: Western blot and RT-PCR of RPMI8226 cells after 24 hour treatment; assay type: cell-based, human
Source text: FIG. 6. […] The numbers indicate the concentration of bortezomib in nM.

Sequence of RNase T1 (P00651 27-130): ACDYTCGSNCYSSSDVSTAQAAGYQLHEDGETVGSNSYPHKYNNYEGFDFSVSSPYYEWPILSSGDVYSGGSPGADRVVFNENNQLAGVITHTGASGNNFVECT
Sequence of RNase A (P61823 27-150): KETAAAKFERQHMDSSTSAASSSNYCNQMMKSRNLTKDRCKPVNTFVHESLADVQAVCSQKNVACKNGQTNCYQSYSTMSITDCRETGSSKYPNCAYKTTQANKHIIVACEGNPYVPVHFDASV
Sequence of human IRE-1α (O75460 19-977): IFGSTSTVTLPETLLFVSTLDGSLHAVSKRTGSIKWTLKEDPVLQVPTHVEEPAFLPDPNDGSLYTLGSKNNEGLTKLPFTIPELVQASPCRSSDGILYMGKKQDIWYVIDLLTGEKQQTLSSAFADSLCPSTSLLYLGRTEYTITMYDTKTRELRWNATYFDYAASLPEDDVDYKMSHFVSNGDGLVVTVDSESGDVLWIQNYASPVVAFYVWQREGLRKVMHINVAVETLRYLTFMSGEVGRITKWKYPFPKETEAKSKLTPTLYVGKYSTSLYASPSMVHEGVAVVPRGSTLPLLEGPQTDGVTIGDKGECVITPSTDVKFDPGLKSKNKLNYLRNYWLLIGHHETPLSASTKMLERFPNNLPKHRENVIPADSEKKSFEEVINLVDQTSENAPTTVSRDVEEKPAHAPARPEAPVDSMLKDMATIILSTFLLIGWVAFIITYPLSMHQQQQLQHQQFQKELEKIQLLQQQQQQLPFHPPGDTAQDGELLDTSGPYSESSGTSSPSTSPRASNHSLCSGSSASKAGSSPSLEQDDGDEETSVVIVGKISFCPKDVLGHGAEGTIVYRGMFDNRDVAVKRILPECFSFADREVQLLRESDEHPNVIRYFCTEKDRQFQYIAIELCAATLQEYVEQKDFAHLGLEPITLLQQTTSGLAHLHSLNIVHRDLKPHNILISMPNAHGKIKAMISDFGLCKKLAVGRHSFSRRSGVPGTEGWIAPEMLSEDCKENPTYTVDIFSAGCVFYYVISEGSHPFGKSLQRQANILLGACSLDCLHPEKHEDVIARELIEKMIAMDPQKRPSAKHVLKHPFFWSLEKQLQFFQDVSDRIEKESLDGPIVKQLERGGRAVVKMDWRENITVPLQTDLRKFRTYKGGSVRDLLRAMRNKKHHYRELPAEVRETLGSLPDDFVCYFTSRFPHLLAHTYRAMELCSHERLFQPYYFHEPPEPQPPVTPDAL

## CCOc1cccc(C=O)c1O [3-ethoxy o-vanillin, 2-hydroxy-3-ethoxybenzaldehyde]
Human IRE-1α
  IC50: 1000 nM
RNase A
  selectivity for IRE-1 over RNase A: selective for IRE-1
RNase T1
  selectivity for IRE-1 over T1 RNase: selective for IRE-1

## COc1ccc(Br)c(C=O)c1O [6-bromo o-vanillin]
RNase A
  selectivity for IRE-1 over RNase A: selective for IRE-1
RNase T1
  selectivity for IRE-1 over T1 RNase: selective for IRE-1

## COc1cc(-c2cccs2)cc(C=O)c1O [11-28]
[1]
  inhibition of proliferation: inhibits the proliferation

## CN(C)C(=O)c1ccc(-c2ccc3c(C=O)c(O)ccc3c2)cc1 [17-1, 4-(5-formyl-6-hydroxynaphthalen-2-yl)-N,N-dimethylbenzamide]
Primary murine B cells
  IgM secretion: blocked IgM secretion at all doses tested down to 100 nM

## CC(C)C[C@H](NC(=O)[C@H](Cc1ccccc1)NC(=O)c1cnccn1)B(O)O [bortezomib, [(1R)-3-methyl-1-[[(2S)-1-oxo-3-phenyl-2-[(pyrazinylcarbonyl)amino]propyl]amino]butyl]boronic acid]
[2]
  levels of phosphorylated IRE-1α and XBP1-splicing: increases the levels of phosphorylated IRE-1α and XBP1-splicing

## COc1cccc(C=O)c1O [o-vanillin, 2-hydroxy-3-methoxybenzaldehyde]
RNase A
  selectivity for IRE-1 over RNase A: selective for IRE-1
RNase T1
  selectivity for IRE-1 over T1 RNase: selective for IRE-1

— patent publication US9241942B2, “IRE-1α inhibitors” (MannKind Corporation, priority 2007, dated 2016)
